Assay: solvent given as SMILES

CC(=O)OCCOCCN1C(=O)c2cc(NCCOCCO)c3c4c(cc(NCCOCCO)c(c24)C1=O)C(=O)N(CCOCCOC(C)=O)C3=O
absorption maximum (in CO): 604 nm
absorption maximum (in ClC(Cl)Cl): 610 nm
absorption maximum (in O): 622 nm

O=C1c2ccccc2-c2c(-c3ccc([N+](=O)[O-])cc3)c(-c3ccc([N+](=O)[O-])cc3)c(-c3ccccc3)c3cccc1c23
absorption maximum (in CC#N): 396 nm
absorption maximum (in CO): 400 nm

O=C1C=C(Nc2ccccc2)C(=O)c2ccccc21
absorption maximum (in CCCCCC): 450 nm
absorption maximum (in CO): 466 nm

Fc1c(-c2nnc(-c3ccccc3)o2)c(-n2c3ccccc3c3ccccc32)c(F)c(-n2c3ccccc3c3ccccc32)c1-n1c2ccccc2c2ccccc21
absorption maximum (in Cc1ccccc1): 361 nm

c1ccc(-c2nc(-c3c[nH]c4ccccc34)n3ccccc23)cc1
absorption maximum (in C1CCCCC1): 382 nm
absorption maximum (in CC#N): 381 nm
absorption maximum (in CO): 372 nm
absorption maximum (in ClCCl): 380 nm
absorption maximum (in O): 390 nm

Clc1ccccc1N1c2c(sc3ccccc23)Sc2sc3ccccc3c21
absorption maximum (in ClCCl): 400 nm

CC(=O)c1c2c(c(C(C)=O)c3c1OC(CC(=O)O)O3)OCO2
absorption maximum (in CC#N): 433 nm

CCCCCCCCOc1ccc(C2=C3C(C)=C(C#Cc4ccc(B(c5c(C)cc(C)cc5C)c5c(C)cc(C)cc5C)cc4)C(C)=[N+]3[B-](F)(F)n3c(C)c(C#Cc4ccc(B(c5c(C)cc(C)cc5C)c5c(C)cc(C)cc5C)cc4)c(C)c32)cc1
absorption maximum (in CC#N): 568.51 nm
absorption maximum (in CCCCCC): 580.18 nm
absorption maximum (in ClCCl): 576 nm

c1cc2ccc3cccc4ccc(c1)c2c34
absorption maximum (in C1CCCCC1): 334 nm
absorption maximum (in CC#N): 335 nm
absorption maximum (in CCCCCC): 330 nm
absorption maximum (in CCO): 334 nm
absorption maximum (in CCOC(C)=O): 335 nm
absorption maximum (in CO): 330 nm
absorption maximum (in Cc1ccccc1): 362 nm
absorption maximum (in ClC(Cl)Cl): 337 nm
absorption maximum (in ClCCl): 333 nm

COc1cc(OC)cc(C2=C3C(C)=C(I)C(C)=[N+]3[B-](F)(F)n3c(/C=C/c4ccsc4)c(I)c(C)c32)c1
absorption maximum (in C1CCOC1): 598 nm
absorption maximum (in CS(C)=O): 604 nm
absorption maximum (in ClCCl): 599 nm

CC[N+]1(CC)CN2C(=N1)C(C(=O)O)=Cc1cc(Oc3ccccc3)ccc12
absorption maximum (in O): 387 nm

Nc1cc2oc3cc(O)c(F)cc3c(=O)c2cc1F
absorption maximum (in CCO): 366 nm

[NH3+]C(Cc1ccc(O)c(O)c1)C(=O)[O-] (stereo not given)
absorption maximum (in O): 278 nm

CCOC(=O)c1ccc(C2CC(c3cccc4ccccc34)=NN2c2ccc(OC)cc2)cc1 (stereo not given)
absorption maximum (in ClCCl): 383 nm

N#Cc1ccc(N/N=C/c2ccc3ccccc3c2O)cc1
absorption maximum (in CC#N): 380 nm
absorption maximum (in CCCCCC): 384 nm
absorption maximum (in CO): 380 nm
absorption maximum (in CS(C)=O): 390 nm
absorption maximum (in ClC(Cl)Cl): 384 nm

CC[N+]1(CC)CN2C(C)=CC(C)=C(C(=O)O)C2=N1
absorption maximum (in CN(C)C=O): 346 nm
absorption maximum (in O): 343 nm

CCn1c2ccc(S(=O)(=O)O)cc2c(=O)c2cc3c(cc21)c(=O)c1cc(S(=O)(=O)O)ccc1n3CCCCCC(=O)O
absorption maximum (in O): 536 nm

CCN1\C(=C/C=C/C=C/C2=[N+](CC)c3ccc4ccccc4c3C2(C)C)C(C)(C)c2c1ccc1ccccc21
absorption maximum (in C1CCOC1): 684 nm
absorption maximum (in CC#N): 677 nm
absorption maximum (in CC(C)=O): 680 nm
absorption maximum (in CCO): 682 nm
absorption maximum (in CN(C)C=O): 683 nm
absorption maximum (in CO): 678 nm
absorption maximum (in CS(C)=O): 686 nm
absorption maximum (in ClCCl): 693 nm

COC(=O)C(NC(=O)OC(C)(C)C)c1ccc2oc(-c3ccc(N(C)C)cc3OC)nc2c1 (stereo not given)
absorption maximum (in CC1CCCCC1): 336 nm
absorption maximum (in CC#N): 343 nm
absorption maximum (in CO): 346 nm

[O-][n+]1c(/C=C/c2ccccc2)nc(Nc2ccccc2)c2c1CCCC2
absorption maximum (in ClCCl): 416 nm

CCN1c2ccc(/C=N/Nc3ccccn3)cc2Sc2cc(-c3cccc4ccccc34)ccc21
absorption maximum (in C1CCOC1): 378 nm
absorption maximum (in CS(C)=O): 383 nm
absorption maximum (in Cc1ccccc1): 378 nm
absorption maximum (in ClCCl): 379 nm

C(=C\c1cnc2ccccc2n1)/c1ccc(N2CCCCC2)cc1
absorption maximum (in C1CCOC1): 410 nm
absorption maximum (in CC#N): 410 nm
absorption maximum (in CCCCCCC): 402 nm
absorption maximum (in CS(C)=O): 423 nm
absorption maximum (in ClCCl): 414 nm

COc1ccc2c(c1)CCC1=C(C#Cc3ccccc3)O[B-](F)(F)[O+]=C12
absorption maximum (in ClCCl): 443 nm

CC(C)(C)[Si](C)(C)C#CC1=CC2=c3cc(C#C[Si](C)(C)C(C)(C)C)c4nc(C(F)(F)C(F)(F)C(F)(F)F)nc5c(C#C[Si](C)(C)C(C)(C)C)cc(c3c54)C3=CC(C#C[Si](C)(C)C(C)(C)C)=C4N=C(C(F)(F)C(F)(F)C(F)(F)F)N=C1C4C32 (stereo not given)
absorption maximum (in C1CCOC1): 513 nm

CCN(CC)c1ccc2cc(-c3nc4cc(C(=O)Nc5cccc(C)c5)ccc4o3)c(=O)oc2c1
absorption maximum (in ClCCl): 440 nm

CCC(CC)c1ccc2cc3c([o+]c2c1)/C(=C/Cc1ccccc1)CCC3
absorption maximum (in CCO): 604 nm
absorption maximum (in ClC(Cl)Cl): 616 nm
absorption maximum (in ClCCl): 615 nm

COc1cc2c(cc1OC)C1=C[C@H](c3ccccc3)C3(C(C(=O)O[C@@H]4C[C@H]5CC[C@@H]4C5)=C(C(=O)O[C@H]4C[C@@H]5CC[C@H]4C5)N1CC2)c1ccccc1-c1ccccc13
absorption maximum (in ClCCl): 314 nm

O=C1C=Cc2cc3ccccc3c(=O)n21
absorption maximum (in CC#N): 351 nm
absorption maximum (in CO): 349 nm
absorption maximum (in CS(C)=O): 357 nm
absorption maximum (in ClC(Cl)Cl): 353 nm

CCOC(=O)C1=C(C(=O)OCC)C2(c3ccccc3-c3ccccc32)[C@@H](c2ccccc2)C=C2c3cc(OC)c(OC)cc3CCN21
absorption maximum (in ClCCl): 311 nm

COc1ccc(/C=C/c2cc[n+]3ccc(/C=C/c4ccc(OC)cc4)cc3c2)cc1
absorption maximum (in CO): 444 nm

CC1(C)c2ccccc2N(c2ccc3c(c2)C2(c4cc(N5c6ccccc6C(C)(C)c6ccccc65)ccc4-3)c3ccccc3S(=O)(=O)c3ccccc32)c2ccccc21
absorption maximum (in Cc1ccccc1): 364 nm

C[Si](C)(C)c1ccc([Si](C)(C)C)c2ccccc12
absorption maximum (in C1CCCCC1): 300 nm

Fc1ccc(C2=C(c3ccc(F)cc3)c3cccc4c3c(cc3nc5ccccc5nc34)O2)cc1
absorption maximum (in ClCCl): 490 nm

CCCCCCOc1cc2cc(=O)oc3ccc4cccc1c4c23
absorption maximum (in CC1CCCO1): 460 nm

c1ccc(-c2nc3c(ccc4[nH]ccc43)o2)cc1
absorption maximum (in C1CCCCC1): 331 nm
absorption maximum (in C1COCCO1): 333 nm
absorption maximum (in CC#N): 320 nm
absorption maximum (in CO): 325 nm
absorption maximum (in Cc1ccccc1): 322 nm
absorption maximum (in O): 321 nm

COc1ccc(-c2cc3c(s2)c(-c2ccccc2)cc(=O)n3C)cc1
absorption maximum (in CC#N): 384 nm
absorption maximum (in ClCCl): 386 nm

c1ccc(-c2nn(-c3ccccc3)c3nc4ccc(N(c5ccccc5)c5ccccc5)cc4cc23)cc1
absorption maximum (in C1CCCCC1): 452.08 nm
absorption maximum (in C1CCOC1): 450.05 nm
absorption maximum (in CC#N): 447.03 nm
absorption maximum (in CC(C)=O): 448.03 nm
absorption maximum (in CCCCCl): 451.06 nm
absorption maximum (in CCCCOCCCC): 451.06 nm
absorption maximum (in CN(C)C=O): 450.05 nm

CCCCCCCCCCOc1cc(OCCCCCCCCCC)cc(C2=C3C(/C=C/c4ccc(OC)cc4)=CC(/C=C/c4ccc(OC)cc4)=[N+]3[B-](F)(F)n3c(/C=C/c4ccc(OC)cc4)cc(C=Cc4ccc(OC)cc4)c32)c1
absorption maximum (in ClC(Cl)Cl): 689 nm

CC(C)(C)c1ccc2c(c1)c1cc(C(C)(C)C)ccc1n2-c1c(C#N)c(-n2c3ccc(C(C)(C)C)cc3c3cc(C(C)(C)C)ccc32)c(-n2c3ccc(C(C)(C)C)cc3c3cc(C(C)(C)C)ccc32)c(-n2c3ccc(C(C)(C)C)cc3c3cc(C(C)(C)C)ccc32)c1-n1c2ccc(C(C)(C)C)cc2c2cc(C(C)(C)C)ccc21
absorption maximum (in Cc1ccccc1): 427.95 nm

O=C(N/N=C/c1ccccc1O)c1ccc([N+](=O)[O-])cc1
absorption maximum (in C1CCOC1): 338 nm
absorption maximum (in CC#N): 339 nm
absorption maximum (in CC(C)=O): 350 nm
absorption maximum (in CCO): 345 nm
absorption maximum (in CN(C)C=O): 380 nm
absorption maximum (in CS(C)=O): 342 nm
absorption maximum (in ClCCl): 340 nm

CCCCCCCCc1ccc(-c2ccc(/C=C(\C#N)c3ccc(-c4cccc5cccc(-c6ccc(/C(C#N)=C/c7ccc(-c8ccc(CCCCCCCC)cc8)cc7)cc6)c45)cc3)cc2)cc1
absorption maximum (in Cc1ccccc1): 350 nm

Cc1ccc(-c2cc3ccccc3oc2=O)cc1
absorption maximum (in C1CCOC1): 328 nm
absorption maximum (in CCCCCC): 328 nm
absorption maximum (in CCO): 328 nm
absorption maximum (in CS(C)=O): 330 nm

Cc1ccc(-c2ccc(-c3ccc(C)cc3)c(/C(=C(/c3ccccc3)c3cc(-c4ccc(C)cc4)ccc3-c3ccc(C)cc3)c3ccccc3)c2)cc1
absorption maximum (in C1CCOC1): 282 nm

CC(C)(C)c1ccc(C2=C(c3ccc(-n4c5ccc(C(C)(C)C)cc5c5cc(C(C)(C)C)ccc54)cc3)S(=O)(=O)c3c2sc(-c2ccc(-n4c5ccc(C(C)(C)C)cc5c5cc(C(C)(C)C)ccc54)cc2)c3-c2ccc(C(C)(C)C)cc2)cc1
absorption maximum (in C1CCOC1): 429 nm

COC(=O)c1c(-c2cc3ccccc3oc2=O)nn(-c2cccc(Cl)c2)c1C(=O)OC
absorption maximum (in ClCCl): 273 nm

c1ccc(-n2c3ccccc3c3cc(-c4ccc5nc(-c6ccc(-n7c8ccccc8c8ccccc87)cc6)nn5c4)ccc32)cc1
absorption maximum (in C1CCOC1): 340 nm

Cc1cccc2c3ccccc3n(-c3ccc(-c4c(-c5ccccc5)c(C#N)c(C#N)c(-c5ccccc5)c4-c4ccc(-n5c6ccccc6c6cccc(C)c65)cc4)cc3)c12
absorption maximum (in Cc1ccccc1): 339 nm

CN(C)c1ccc(/C=C/c2cnc(C#Cc3ccc(C#N)cc3)o2)cc1
absorption maximum (in ClCCl): 390 nm

F[Si-](F)(c1ccccc1)(c1ccccc1)c1cccc2ccccc12
absorption maximum (in C1CCOC1): 286 nm

Clc1ccc(/C=C/c2nc3ccccc3s2)cc1
absorption maximum (in C1CCCCC1): 340 nm
absorption maximum (in CO): 340 nm

CCC1(CC)c2ccccc2-c2c1c1c(c3c2C(CC)(CC)c2cc(B(c4c(C)cc(C)cc4C)c4c(C)cc(C)cc4C)ccc2-3)C(CC)(CC)c2cc(B(c3c(C)cc(C)cc3C)c3c(C)cc(C)cc3C)ccc2-1
absorption maximum (in C1CCOC1): 364 nm
absorption maximum (in CC#N): 359 nm
absorption maximum (in CC(C)=O): 360 nm
absorption maximum (in CCCCCC): 362 nm
absorption maximum (in ClC(Cl)Cl): 362 nm

O=C(O)CCCc1cc2ccc3cccc4ccc(c1)c2c34
absorption maximum (in CO): 374 nm

NNC(=O)N1C(=O)c2cc(S(=O)(=O)[O-])cc3c(N)c(S(=O)(=O)[O-])cc(c23)C1=O
absorption maximum (in O): 458 nm
